Experiments:
[1] = tested on: Candida albicans; settings: dacron fibers; Vuddhakel et al. (1988); cited from earlier work
[2] = tested on: Puccinia recondita; assay: Germination-associated spore adhesion assay in microtiter plates (sulforhodamine B); type: cell-based; settings: for EC50 (ppm): inhibition of adhesion, 0.05% Tween 20, 19°C, 4 hours; for inhibition of germination-associated adhesion: statement in words
[3] = tested on: Pyricularia oryzae appressoria; settings: Inoue et al., Pesticide Science 19, 145-152 (1987); cited from earlier work
[4] = tested on: Magnaporthe grisea; type: cell-based; settings: for EC50 (ppm): inhibition of adhesion, YEG, 25°C, 6 hours; for inhibition of germination-associated adhesion: statement in words

Compound	EC50 (ppm) [2]	inhibition of germination-associated adhesion [2]	EC50 (ppm) [4]	inhibition of germination-associated adhesion [4]	also measured
CCC(C)(C)c1ccc(CC(C)CN2C[C@@H](C)O[C@@H](C)C2)cc1 (stereo partly shown) [amorolfine]	–	–	–	–	Candida adherence [1]: inhibit Candida adherence
CC1=C(C(=O)Nc2ccccc2)SCCO1 [carboxin]	0.081 ppm	inhibited germination-associated adhesion	–	–	–
Cn1c(=O)sc2cccc(Cl)c21 [chlobenthiazone]	–	–	–	–	adhesion of Pyricularia oryzae appressoria to barley leaves [3]: inhibited adhesion
N#CC(CCc1ccc(Cl)cc1)(Cn1cncn1)c1ccccc1 (stereo not shown) [fenbuconazole]	9.2 ppm	little or no activity	–	–	–
CCCCC(C#N)(Cn1cncn1)c1ccc(Cl)cc1 (stereo not shown) [myclobutanil]	>10 ppm	little or no activity	–	–	–
CCCN(CCOc1c(Cl)cc(Cl)cc1Cl)C(=O)n1ccnc1 [prochloraz]	–	–	>10.0 ppm	little or no activity	–
Cc1nc(C(F)(F)F)c(C(=O)Nc2c(Br)cc(OC(F)(F)F)cc2Br)s1 [thifluzamide]	0.043 ppm	inhibited germination-associated adhesion	–	–	–
COC(=O)NC(=S)Nc1ccccc1NC(=S)NC(=O)OC [thiophanate-methyl]	–	–	7.5 ppm	little or no activity	–
Cc1cccc2sc3nncn3c12 [tricyclazole]	–	–	–	–	adhesion of Pyricularia oryzae appressoria to barley leaves [3]: inhibited adhesion
mancozeb	0.56 ppm	inhibited germination-associated adhesion	0.115 ppm	potent inhibitors of germination-associated adhesion	–
